Measurements published in the supplement of paper PMC10307832.

How the values were obtained:
Assay in all cases: relative viability (nuclei count vs DMSO), 5 days (fraction); higher = more cells survive
A-427 = system: A-427
In short: (§1)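 Each reported value is a median over duplicate plates. It expresses relative viability: treated-well nuclei count divided by vehicle-well nuclei count. Lung cancer cell lines in 1536-well plates were dosed by pin tool a day after seeding, alone with one drug or with a fixed anchor-drug dose plus five library-drug doses (not always all listed) in √10 steps, and nuclei were counted after 5 days.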

COR-L 105 = system: COR-L 105
In short: as §1

ChaGo-K-1 = system: ChaGo-K-1
In short: as §1

EKVX = system: EKVX
In short: as §1

EMC-BAC-2 = system: EMC-BAC-2
In short: as §1

EPLC-272H = system: EPLC-272H
In short: as §1

HARA = system: HARA
In short: as §1

HCC-44 = system: HCC-44
In short: as §1

LK-2 = system: LK-2
In short: as §1

LU99A = system: LU99A
In short: as §1

NCI-H1650 = system: NCI-H1650
In short: as §1

NCI-H1734 = system: NCI-H1734
In short: as §1

Cc1cn(-c2cc(NC(=O)c3ccc(C)c(Nc4nccc(-c5cccnc5)n4)c3)cc(C(F)(F)F)c2)cn1 [Nilotinib] + COc1cccc2cc(-c3nc([C@H]4CC[C@H](C(=O)O)CC4)n4ncnc(N)c34)[nH]c12 [OSI-027] (partner 0.5 µM)
relative viability (A-427; first compound 0.001 µM): 0.369
relative viability (A-427; first compound 0.003162 µM): 0.456
relative viability (A-427; first compound 0.01 µM): 0.44
relative viability (A-427; first compound 0.03162 µM): 0.297
relative viability (A-427; first compound 0.1 µM): 0.154
relative viability (COR-L 105; first compound 0.001 µM): 0.831
relative viability (COR-L 105; first compound 0.003162 µM): 0.683
relative viability (COR-L 105; first compound 0.01 µM): 0.741
relative viability (COR-L 105; first compound 0.03162 µM): 0.577
relative viability (COR-L 105; first compound 0.1 µM): 0.586
relative viability (ChaGo-K-1; first compound 0.001 µM): 0.49
relative viability (ChaGo-K-1; first compound 0.003162 µM): 0.643
relative viability (ChaGo-K-1; first compound 0.01 µM): 0.485
relative viability (ChaGo-K-1; first compound 0.03162 µM): 0.471
relative viability (ChaGo-K-1; first compound 0.1 µM): 0.274
relative viability (EKVX; first compound 0.001 µM): 0.541
relative viability (EKVX; first compound 0.003162 µM): 0.719
relative viability (EKVX; first compound 0.01 µM): 0.904
relative viability (EKVX; first compound 0.03162 µM): 0.665
relative viability (EKVX; first compound 0.1 µM): 0.671
relative viability (EMC-BAC-2; first compound 0.001 µM): 0.348
relative viability (EMC-BAC-2; first compound 0.003162 µM): 0.387
relative viability (EMC-BAC-2; first compound 0.01 µM): 0.426
relative viability (EMC-BAC-2; first compound 0.03162 µM): 0.345
relative viability (EMC-BAC-2; first compound 0.1 µM): 0.354
relative viability (EPLC-272H; first compound 0.001 µM): 0.24
relative viability (EPLC-272H; first compound 0.003162 µM): 0.275
relative viability (EPLC-272H; first compound 0.01 µM): 0.325
relative viability (EPLC-272H; first compound 0.03162 µM): 0.246
relative viability (EPLC-272H; first compound 0.1 µM): 0.177
relative viability (HARA; first compound 0.001 µM): 0.523
relative viability (HARA; first compound 0.003162 µM): 0.633
relative viability (HARA; first compound 0.01 µM): 0.469
relative viability (HARA; first compound 0.03162 µM): 0.179
relative viability (HARA; first compound 0.1 µM): 0.231
relative viability (HCC-44; first compound 0.001 µM): 0.498
relative viability (HCC-44; first compound 0.003162 µM): 0.391
relative viability (HCC-44; first compound 0.01 µM): 0.43
relative viability (HCC-44; first compound 0.03162 µM): 0.505
relative viability (HCC-44; first compound 0.1 µM): 0.382
relative viability (LK-2; first compound 0.001 µM): 0.209
relative viability (LK-2; first compound 0.003162 µM): 0.174
relative viability (LK-2; first compound 0.01 µM): 0.184
relative viability (LK-2; first compound 0.03162 µM): 0.178
relative viability (LK-2; first compound 0.1 µM): 0.187
relative viability (LU99A; first compound 0.001 µM): 0.272
relative viability (LU99A; first compound 0.003162 µM): 0.304
relative viability (LU99A; first compound 0.01 µM): 0.256
relative viability (LU99A; first compound 0.03162 µM): 0.313
relative viability (LU99A; first compound 0.1 µM): 0.273
relative viability (NCI-H1650; first compound 0.001 µM): 0.691
relative viability (NCI-H1650; first compound 0.003162 µM): 0.792
relative viability (NCI-H1650; first compound 0.01 µM): 0.569
relative viability (NCI-H1650; first compound 0.03162 µM): 0.464
relative viability (NCI-H1650; first compound 0.1 µM): 0.426
relative viability (NCI-H1734; first compound 0.001 µM): 0.57
relative viability (NCI-H1734; first compound 0.003162 µM): 0.595
